Source: patent publication US6613937B2, “S-nitroso- and S-nitro-N-acyl-L-cysteine ester derivatives as pharmalogically active agents and pharmaceutical compositions containing said compounds” (priority 1999, dated 2003)
Values belong to the compound of their own block, whether it stands above or below them.

Legend:
[1] = In vivo metabolism of orally applied 15N-marked SNACET in the rat (urine, GC-MS); settings: oral 17.5 mg/kg
Description: In vivo Metabolism of Orally Applied ^15N-marked S-nitroso-N-acetylcysteine ethyl ester (^15N-SNACET) in the Rat
A male Sprague Dawley rat weighing 480 g is orally given 17.5 mg of ^15N-marked S-nitroso-N-acetylcysteine ethyl ester (^15N-SNACET) per kg body weight, dissolved in 1 ml of a 10% (w/v) glucose solution in drinking water. Before and up to 24 hours after application, urine is collected and the ^15N-concentration of nitrate, nitrite and S-nitroso metabolites of ^15N-SNACET is determined by means of GC-MS.
Metabolism of orally applied ^15N-marked S-nitroso-N-acetylcysteine-ethylester (17.5 mg/kg body weight) in a rat. ^15N-concentration of nitrate, nitrite and for the sum of ^15N-marked S-nitroso-N-acetylcysteine ethyl ester and its metabolites collected in the urine before and up to 24 hours after the application.

human arteria mammaria = experiment: Relaxation of the human arteria mammaria in vitro; settings: FIG. 1b
Source text: B. Relaxation of the Human Arteria Mammaria in vitro by S-nitroso-N-acetylcysteine ethyl ester and S-nitro-N-acetylcysteine ethyl ester
b. Relaxation of the human arteria mammaria in vitro by S-nitroso-N-acetylxysteine ethyl ester (SNACET) and S-nitro-N-acetylcysteine ethyl ester (SNO2ACET).

human Corpus Cavernosum = experiment: Relaxation of the human Corpus Cavernosum in vitro; settings: FIG. 1a
Source text: A. Relaxation of the Human Corpus Cavernosum in vitro by Means of S-nitroso-N-acetylcysteine ethyl ester, S-nitroso-N-(O-acetylsalicyl)cysteine ethyl ester and Their Metabolites
a. Relaxation of the human Corpus Cavernosum in vitro by S-nitroso-N-acetylcysteine-ethylester (SNACET), S-nitroso-N-(O-acetylsalicyl)cysteine ethyl ester (ASS-SNCET) and their metabolites SNCET and SNAC.

[2] = in vitro and in vivo, humans; cited from earlier work
[3] = humans; cited from earlier work
[4] = Penetration by human Tunica albuginea in vitro in a Franz' cell; format: in vitro ADME; settings: SNACET in dimethyl sulphoxide, FIG. 2
Description: Penetration of S-nitroso-N-acetylsysteine ethyl ester (SNACET) by Human Tunica albuginea in vitro
Part of Tunica albuginea which has just been prepared is fixed in a Franz' cell. The active surface is 1.77 cm^2. The acceptor phase (10 ml) consists of Hank's buffer (pH 7.4), human albumin (30 g/l), penicillin G (100 units) and streptomycin (10 μg) and is stirred with a magnetic stirrer at a constant rotation speed. The penetration is started by application of solutions of SNACET in dimethyl sulphoxide at various concentrations (0.25 ml) on the part of the skin. At various points in time, samples are taken from the acceptor phase and the concentration of the sum from SNACET and its metabolites is determined. In the acceptor phase, unmodified SNACET and other metabolites including nitrite are detected. […] The penetration rate and the amount of the penetrated SNACET and their metabolites in the acceptor phase depend on the amount of SNACET applied onto the Tunica albuginea. The lag time is approximately 20 min. In the linear region, the penetration rates are 1.0, 2.5 or 5.0 μmol SNACET/hour.
Penetration of S-nitroso-N-acetylcysteine ethyl ester (SNACET) by human Tunica albuginea in vitro in a Franz' cell. Three different amounts dissolved in dimethyl sulphoxide (250 μl each) were applied (see Legend).

Sprague Dawley rat = experiment: Hypotensive effect in vivo in the rat (i.v. infusion, average artery blood pressure); settings: anaesthetised male Sprague Dawley rat, FIG. 3
Source text: Hypotensive Effect of SNACET in vivo in the Rat
S-nitroso-N-acetylcysteine-ethylester (SNACET) is applied i.v. to a male, anaesthetised Sprague Dawley rat which has a weight of 400 g. Before and after the infusion, the average artery blood pressure is taken continuously.
Hypotensive effect of SNACET in vivo in the rat. SNACET was applied i.v. with the infusion rates stated.

human blood platelets = experiment: Inhibition of collagen-induced aggregation of washed human blood platelets in vitro; format: cell-based; settings: Platelet, collagen-induced (2 μg/ml)
Description: Inhibition of the Aggregation of Human Blood Platelets in vitro by Means of S-nitroso-N-acetylcysteine ethyl ester (SNACET) and S-nitroso-N-(O-acetylsalicyl)cysteine ethyl ester (ASS-SNCET)
(§1) Collagen-induced (2 μg/ml) aggregation and thromboxane synthesis in human blood platelets which have been washed are inhibited by SNACET in a concentration-dependent manner (FIG. 4a). The IC50s for the inhibition of the platelet aggregation and the thromboxane synthesis by SNACET are determined at 1 and 0.5 μM. Collagen-induced (2 μg/ml) aggregation of human blood platelets that have been washed is inhibited by ASS-SNCET in a concentration-dependent manner (FIG. 4b). The IC50 for the inhibition of the platelet aggregation by ASS-SNCET is determined at 2 μM (FIG. 4b).
(§2) a. Inhibition of the collagen-induced (2 μg/ml) aggregation of human blood platelets that have been washed and the thromboxane synthesis in the platelets in vitro by S-nitroso-N-acetylcysteine ethyl ester (SNACET).
b. Inhibition of the collagen-induced (2 μg/ml) aggregation of human blood platelets in vitro that have been washed by S-nitroso-N-(O-acetylsalicyl)cysteine ethyl ester (ASS-SNCET). The values are average values from analyses with platelets of four healthy subjects.

[5] = system: thromboxane synthesis in human blood platelets; experiment: Inhibition of collagen-induced thromboxane synthesis in washed human blood platelets in vitro; format: cell-based; settings: Platelet, collagen-induced (2 μg/ml)
Description: as §1, §2

[6] = in vivo in an animal; cited from earlier work

Time of the highest 15N-concentration in urine [1]: within the first two hours
Main metabolite in urine ([1]; urine up to 24 hours): ^15N-nitrate
Compound: CCOC(=O)[C@H](CS[15N]=O)NC(C)=O [^15N-SNACET, ^15N-marked S-nitroso-N-acetylcysteine ethyl ester]
15N-concentration in the urine 24 hours after the administration ([1]; 24 hours): insignificantly higher than the natural occurrence of ^15N
Secretion of unchanged compound and S-nitroso metabolites into the urine ([1]; urine up to 24 hours): neither ^15N-SNACET no other S-[^15N]nitroso-containing metabolites are secreted into the urine

Compound: CCOC(=O)[C@H](CS[N+](=O)[O-])NC(C)=O [SNO2-ACET, S-nitro-N-acetylcysteine ethyl ester]
Relaxation of human arteria mammaria (human arteria mammaria): relax human arteria mammaria in vitro in a concentration-dependent manner

Compound: CCOC(=O)[C@@H](N)CSN=O [SNCET, S-nitroso-cysteine ethyl ester]
Relaxation of human Corpus Cavernosum (human Corpus Cavernosum): relax human Corpus Cavernosum in vitro in a concentration-dependent manner

Compound: N[C@@H](CCC(=O)N[C@@H](CSN=O)C(=O)NCC(=O)O)C(=O)O [S-nitroso glutathion, S-nitroso-L-glutathion]
Anti-hypertensive and anti-aggregatory effect [2]: have an anti-hypertensive and an anti-aggregatory effect in humans
Rate of embolism [3]: reduces the rate of embolism in humans

Penetration of the Tunica albuginea [4]: penetrates the Tunica albuginea
IC50 (human blood platelets): 1000 nM
IC50 [5]: 500 nM
Compound: CCOC(=O)[C@H](CSN=O)NC(C)=O [SNACET, S-nitroso-N-acetylcysteine ethyl ester]
Relaxation of human Corpus Cavernosum (human Corpus Cavernosum): relax human Corpus Cavernosum in vitro in a concentration-dependent manner
Relaxation of human arteria mammaria (human arteria mammaria): relax human arteria mammaria in vitro in a concentration-dependent manner
Average artery blood pressure (Sprague Dawley rat): the average artery blood pressure decreases in dependence on the infusion rate

Compound: S-nitroso-N-acetyl penicillamines [SNAP]
Development of tolerance [6]: show no development of tolerance

Compound: CC(=O)N[C@@H](CSN=O)C(=O)O [SNAC, S-nitroso-N-acetylcysteine]
Relaxation of human Corpus Cavernosum (human Corpus Cavernosum): relax human Corpus Cavernosum in vitro in a concentration-dependent manner
